Source: ChEMBL document CHEMBL1909625, “Sesquiterpene lactones from Inula falconeri, a plant endemic to the Himalayas, as potential anti-inflammatory agents” (Eur J Med Chem, 2011)

What was measured:
RAW264.7 [1] = test: Antiinflammatory activity in mouse RAW264.7 cells assessed as inhibition of LPS-induced NO production pretreated for 30 mins before LPS challenge measured 24 hrs after LPS challenge by Griess reaction method; format: functional, cell-based
RAW264.7 [2] = test: Cytotoxicity against mouse RAW264.7 cells at antiinflammatory IC50 level by MTT assay; format: cell-based

Row | SMILES | IC50 (RAW264.7 [1]) [µM] | Activity (RAW264.7 [2])
1 | C[C@@H]1C[C@@H]2OC(=O)[C@H](C)[C@H]2[C@H](O)[C@]2(C)C(=O)CC[C@@H]12 | 20.3 | Non-toxic
2 | C=C1C[C@H]2OC(=O)C(=C)[C@H]2C[C@@H]2[C@@H]1CC[C@@]2(C)O | 3.94 | Non-toxic
3 | C=C1C(=O)O[C@H]2CC(=C)[C@H]3CC[C@@](C)(O)[C@@H]3[C@@H](O)[C@H]12 | 0.29 | Non-toxic
4 | C=C1C(=O)O[C@H]2C=C(C)[C@H]3CC[C@@](C)(O)[C@@H]3[C@@H](O)[C@H]12 | 0.13 | Non-toxic
5 | C=C(CCCOC(=O)CCCCCCC/C=C\C/C=C\CCCCC)[C@@H]1CC(C)(C)[C@H]1CCC(C)=O | 35.5 | Non-toxic
6 | C=C1C(=O)O[C@@H]2C[C@@]3(C)O[C@@H]3CC[C@@]3(C)O[C@H]3C[C@@H]12 | 6.4 | Non-toxic
7 | C=C1C(=O)O[C@@H]2C[C@@]3(C)[C@@H](O)C[C@@H](OC(=O)C=C(C)C)C(=C)[C@@H]3C[C@H]12 | 4.7 | Non-toxic
8 | C=C1C(=O)O[C@H]2C[C@@H](C)C(CCC(C)O)=CC[C@H]12 (some centres not stated) | 0.87 | Non-toxic
9 | C=C1C(=O)O[C@@H]2C[C@H](C)C(CCC(C)OC(C)=O)=CC[C@H]12 (some centres not stated) | 0.81 | Non-toxic
10 | CC(=O)CCC1=C[C@@H](O)[C@@H]2[C@H](C)C(=O)O[C@@H]2C[C@@H]1C | 21.9 | Non-toxic
11 | C=C1C(=O)O[C@@H]2C[C@H](C)[C@]3(CCC(C)O)O[C@@H]3C[C@H]12 (some centres not stated) | 18.9 | Non-toxic
12 | C[C@@H]1C[C@@H]2OC(=O)[C@H](C)[C@H]2C[C@]2(C)C(=O)CC[C@@H]12 | 10.8 | Non-toxic
13 | C=C1C(=O)O[C@H]2C[C@@H](C)[C@@H]3CC[C@H](O)[C@@]3(C)[C@@H](OC(C)=O)[C@H]12 | 0.36 | Non-toxic
14 | C=C1C(=O)O[C@H]2C[C@@H](C)[C@@H]3CC[C@H](OC(C)=O)[C@@]3(C)[C@@H](O)[C@H]12 | 2.05 | Non-toxic
15 | C=C1C[C@@H]2OC(=O)[C@H](C)[C@H]2C[C@@H]2[C@@H]1CC[C@@]2(C)O | 41.2 | Non-toxic
16 | C=C1C[C@@H]2OC(=O)[C@@H](C)[C@H]2C[C@@H]2[C@@H]1CC[C@@]2(C)O | 19.5 | Non-toxic
17 | C=C1C(=O)O[C@H]2C[C@H](C)[C@@H]3CC[C@@]4(C)O[C@@]34C[C@H]12 | 0.11 | Non-toxic

Row | SMILES | IC50 (RAW264.7 [1]) [µM] | Activity (RAW264.7 [2])
18 | C=C1C[C@H]2OC(=O)C(=C)[C@H]2C[C@@H]2[C@@H]1CC[C@]2(C)O | 7.3 | Non-toxic
19 | C=C1C(=O)O[C@@H]2C[C@@]3(C)[C@@H](O)C[C@@H](OC(=O)C(C)C)C(=C)[C@@H]3C[C@H]12 | 9.12 | Non-toxic
20 | C=C1C(=O)O[C@@H]2C[C@H](C)C(CCC(C)O)=CC[C@H]12 (some centres not stated) | 5.48 | Non-toxic
21 | CC(=O)CCC1=CC[C@@H]2[C@H](C)C(=O)O[C@@H]2C[C@@H]1C | 64.9 | Non-toxic
22 | C=C1C(=O)O[C@@H]2C[C@@H](C)[C@@H]3CCC(=O)[C@@]3(C)C[C@H]12 | 0.4 | Non-toxic
23 | C=C1C(=O)O[C@H]2C=C(C)[C@@H]3CC[C@](C)(O)[C@@H]3C[C@H]12 [4-EPI-ISOINUVISCOLIDE] | 5.94 | Non-toxic
24 | C=C1C(=O)O[C@H]2C[C@@H](C)[C@@H]3CCC(=O)[C@@]3(C)[C@@H](O)[C@H]12 [CARPESIOLIN] | 2.18 | Non-toxic
25 | CC(=O)O[C@H]1[C@H]2[C@H](C[C@@H](C)[C@@H]3CCC(=O)[C@]31C)OC(=O)[C@@H]2C [DIHYDROERGOLIDE] | 8.34 | Non-toxic
26 | C=C1C(=O)O[C@H]2C[C@@H](C)[C@@H]3CCC(=O)[C@@]3(C)[C@@H](OC(C)=O)[C@H]12 [ERGOLIDE] | 0.07 | Non-toxic
27 | C=C1C(=O)O[C@@H]2C[C@@]3(C)[C@@H](O)C[C@@H](O)C(=C)[C@@H]3C[C@H]12 [GRANILIN] | 0.11 | Non-toxic
28 | C=C1C(=O)O[C@@H]2C[C@@]3(C)CCC[C@H](C)C3=C[C@H]12 [HELENINE] | 1.17 | Non-toxic
29 | C=C1C(=O)O[C@H]2CC(=C)[C@H]3CC[C@@](C)(O)[C@@H]3C[C@H]12 [INUVISCOLIDE] | 9.64 | Non-toxic
30 | N=C(N)NN [PIMAGEDINE] | 0.2 | –
31 | C=C1C(=O)O[C@H](CC(C)=O)[C@@H]1CC1=C(C)CCC1=O [POSTIA SECOGUAIANOLIDE] | 15.8 | Non-toxic
32 | C=C1C(=O)O[C@H]2C[C@@H](C)[C@@H]3CC[C@H](O)[C@@]3(C)C[C@H]12 [PSEUDOGUAIANOLIDE] | 9.89 | Non-toxic
33 | C=C1C(=O)O[C@@H]2C[C@H](C)C(CCC(C)=O)=CC[C@H]12 [TOMENTOSIN] | 7.14 | Non-toxic
34 | C=C1C(=O)O[C@H]2C[C@H](C)[C@@H]3CC(=O)C(C)=C3C[C@H]12 [XERANTOLIDE] | 12.9 | Non-toxic
